# Laboratory results: publication PMC10247784, “Physiological activation of human and mouse bitter taste receptors by bile acids” (Communications Biology, 2023)
# “And” between values parts separate entries of the source, which are not always exact repeats. Equal values may be shown once.
# Molecular target: T1, human TAS2R4 (Homo sapiens, UniProt Q9NYW5)
# T1 construct: expressed in transfected cells; host or cells: HEK293T-Gα16gust44
# T1 sequence (Q9NYW5 1-299): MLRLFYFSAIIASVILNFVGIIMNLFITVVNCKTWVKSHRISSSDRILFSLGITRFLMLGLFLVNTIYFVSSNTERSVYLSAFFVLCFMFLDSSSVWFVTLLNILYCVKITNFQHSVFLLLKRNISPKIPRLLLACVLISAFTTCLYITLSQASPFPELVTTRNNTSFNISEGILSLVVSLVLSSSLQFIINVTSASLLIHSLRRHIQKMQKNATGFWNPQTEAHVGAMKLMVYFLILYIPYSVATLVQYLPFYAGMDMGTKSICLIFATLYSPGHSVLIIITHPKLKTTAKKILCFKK
# Assay: Calcium imaging assay (FLIPR), HEK293T-Gα16gust44 cells transfected with human TAS2R4
# Format: cell-based
# How it was run: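 Bile acids from DMSO stocks are applied to dye-loaded cells one day after transient receptor transfection, and calcium-dependent fluorescence is recorded. Maximum signal is standardized to basal and normalized to buffer-only wells, with empty-vector signal subtracted.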
compound,measurement,setting,value
"C[C@H](CCC(=O)O)[C@H]1CC[C@H]2[C@@H]3[C@H](O)C[C@@H]4C[C@H](O)CC[C@]4(C)[C@H]3C[C@H](O)[C@]12C [Cholic Acid, cholic acid]",Efficacy = maximal amplitude (ΔF/F),"TAS2R4, bile acids, mean",0.1231
same,"Efficacy (maximal amplitude ΔF/F), individual data points","TAS2R4, bile acids, single replicates, listed as CA",0.1201 and 0.127 and 0.1223
same,"RLU, fluorescence trace",Time (s) 0,0 RLU
same,"RLU, fluorescence trace",Time (s) 2,19.1006 RLU
same,"RLU, fluorescence trace",Time (s) 4,0.3953 RLU
same,"RLU, fluorescence trace",Time (s) 6,2.918 RLU
same,"RLU, fluorescence trace",Time (s) 8,21.2897 RLU
same,"RLU, fluorescence trace",Time (s) 12,0.674 RLU
same,"RLU, fluorescence trace",Time (s) 14,-1.277 RLU
same,"RLU, fluorescence trace",Time (s) 16,19.6047 RLU
same,"RLU, fluorescence trace",Time (s) 18,0.9534 RLU
same,"RLU, fluorescence trace","Time (s) 18.766 (TCA, TLCA: 18.782)",-8.812 RLU
same,"RLU, fluorescence trace","Time (s) 20.781 (TCA, TLCA: 20.782)",-52.2052 RLU
same,"RLU, fluorescence trace","Time (s) 22.781 (TCA, TLCA: 22.782)",12.9621 RLU
same,"RLU, fluorescence trace","Time (s) 24.781 (TCA, TLCA: 24.782)",16.2873 RLU
same,"RLU, fluorescence trace","Time (s) 26.781 (TCA, TLCA: 26.782)",53.8077 RLU
same,"RLU, fluorescence trace","Time (s) 28.781 (TCA, TLCA: 28.782)",116.69 RLU
same,"RLU, fluorescence trace","Time (s) 30.781 (TCA, TLCA: 30.782)",202.767 RLU
same,"RLU, fluorescence trace","Time (s) 32.781 (TCA, TLCA: 32.782)",286.976 RLU
same,"RLU, fluorescence trace","Time (s) 34.781 (TCA, TLCA: 34.782)",331.157 RLU
same,"RLU, fluorescence trace","Time (s) 36.781 (TCA, TLCA: 36.782)",398.002 RLU
same,"RLU, fluorescence trace","Time (s) 38.781 (TCA, TLCA: 38.782)",447.116 RLU
same,"RLU, fluorescence trace","Time (s) 40.781 (TCA, TLCA: 40.782)",484.385 RLU
same,"RLU, fluorescence trace","Time (s) 42.781 (TCA, TLCA: 42.782)",513.813 RLU
same,"RLU, fluorescence trace","Time (s) 44.781 (TCA, TLCA: 44.782)",571.4 RLU
same,"RLU, fluorescence trace","Time (s) 46.781 (TCA, TLCA: 46.782)",576.681 RLU
same,"RLU, fluorescence trace","Time (s) 48.781 (TCA, TLCA: 48.782)",621.92 RLU
same,"RLU, fluorescence trace","Time (s) 50.781 (TCA, TLCA: 50.782)",628.153 RLU
same,"RLU, fluorescence trace","Time (s) 52.781 (TCA, TLCA: 52.782)",608.216 RLU
same,"RLU, fluorescence trace","Time (s) 54.781 (TCA, TLCA: 54.782)",673.422 RLU
same,"RLU, fluorescence trace","Time (s) 56.781 (TCA, TLCA: 56.782)",649.648 RLU
same,"RLU, fluorescence trace","Time (s) 58.781 (TCA, TLCA: 58.782)",665.81 RLU
same,"RLU, fluorescence trace","Time (s) 60.781 (TCA, TLCA: 60.782)",679.484 RLU
same,"RLU, fluorescence trace","Time (s) 62.781 (TCA, TLCA: 62.782)",679.42 RLU
same,"RLU, fluorescence trace","Time (s) 64.781 (TCA, TLCA: 64.782)",662.359 RLU
same,"RLU, fluorescence trace","Time (s) 66.781 (TCA, TLCA: 66.782)",681.18 RLU
same,"RLU, fluorescence trace","Time (s) 68.781 (TCA, TLCA: 68.782)",661.786 RLU
same,"RLU, fluorescence trace","Time (s) 70.781 (TCA, TLCA: 70.782)",663.821 RLU
same,"RLU, fluorescence trace","Time (s) 72.781 (TCA, TLCA: 72.782)",677.656 RLU
same,"RLU, fluorescence trace","Time (s) 74.781 (TCA, TLCA: 74.782)",687.298 RLU
same,"RLU, fluorescence trace","Time (s) 76.781 (TCA, TLCA: 76.782)",685.082 RLU
same,"RLU, fluorescence trace","Time (s) 78.781 (TCA, TLCA: 78.782)",661.065 RLU
same,"RLU, fluorescence trace","Time (s) 80.781 (TCA, TLCA: 80.782)",659.476 RLU
same,"RLU, fluorescence trace","Time (s) 82.781 (TCA, TLCA: 82.782)",652.14 RLU
same,"RLU, fluorescence trace","Time (s) 84.781 (TCA, TLCA: 84.782)",621.974 RLU
same,"RLU, fluorescence trace","Time (s) 86.781 (TCA, TLCA: 86.782)",644.971 RLU
same,"RLU, fluorescence trace","Time (s) 88.781 (TCA, TLCA: 88.782)",652.467 RLU
same,"RLU, fluorescence trace","Time (s) 90.781 (TCA, TLCA: 90.782)",634.908 RLU
same,"RLU, fluorescence trace","Time (s) 92.781 (TCA, TLCA: 92.782)",616.215 RLU
same,"RLU, fluorescence trace","Time (s) 94.781 (TCA, TLCA: 94.782)",623.143 RLU
same,"RLU, fluorescence trace","Time (s) 96.781 (TCA, TLCA: 96.782)",577.048 RLU
same,"RLU, fluorescence trace","Time (s) 98.781 (TCA, TLCA: 98.782)",590.83 RLU
same,"RLU, fluorescence trace","Time (s) 100.781 (TCA, TLCA: 100.782)",594.46 RLU
same,"RLU, fluorescence trace","Time (s) 102.781 (TCA, TLCA: 102.782)",570.853 RLU
same,"RLU, fluorescence trace","Time (s) 104.781 (TCA, TLCA: 104.782)",535.832 RLU
same,"RLU, fluorescence trace","Time (s) 106.781 (TCA, TLCA: 106.782)",576.036 RLU
same,"RLU, fluorescence trace","Time (s) 108.781 (TCA, TLCA: 108.782)",552.984 RLU
same,"RLU, fluorescence trace","Time (s) 110.781 (TCA, TLCA: 110.782)",539.61 RLU
same,"RLU, fluorescence trace","Time (s) 112.781 (TCA, TLCA: 112.782)",529.912 RLU
same,"RLU, fluorescence trace","Time (s) 114.781 (TCA, TLCA: 114.782)",525.649 RLU
same,"RLU, fluorescence trace","Time (s) 116.781 (TCA, TLCA: 116.782)",514.781 RLU
same,"RLU, fluorescence trace","Time (s) 118.781 (TCA, TLCA: 118.782)",515.049 RLU
same,"RLU, fluorescence trace","Time (s) 120.781 (TCA, TLCA: 120.782)",488.175 RLU
same,"RLU, fluorescence trace","Time (s) 122.781 (TCA, TLCA: 122.782)",489.541 RLU
same,"RLU, fluorescence trace","Time (s) 124.781 (TCA, TLCA: 124.782)",470.085 RLU
same,"RLU, fluorescence trace","Time (s) 126.781 (TCA, TLCA: 126.782)",464.513 RLU
same,"RLU, fluorescence trace","Time (s) 128.781 (TCA, TLCA: 128.782)",464.071 RLU
same,"RLU, fluorescence trace","Time (s) 130.781 (TCA, TLCA: 130.782)",466.285 RLU
same,"RLU, fluorescence trace","Time (s) 132.781 (TCA, TLCA: 132.782)",460.578 RLU
same,"RLU, fluorescence trace","Time (s) 134.781 (TCA, TLCA: 134.782)",427.673 RLU
same,"RLU, fluorescence trace","Time (s) 136.781 (TCA, TLCA: 136.782)",445.361 RLU
same,"RLU, fluorescence trace",Time (s) 137.547,436.003 RLU
same,"RLU, fluorescence trace",Time (s) 143.547,408.618 RLU
same,"RLU, fluorescence trace",Time (s) 149.547,386.336 RLU
same,"RLU, fluorescence trace",Time (s) 155.547,351.767 RLU
same,"RLU, fluorescence trace",Time (s) 161.547,346.602 RLU
same,"RLU, fluorescence trace",Time (s) 167.547,335.172 RLU
same,"RLU, fluorescence trace",Time (s) 173.547,264.873 RLU
same,"RLU, fluorescence trace",Time (s) 179.547,265.3 RLU
same,"RLU, fluorescence trace",Time (s) 185.547,242.782 RLU
same,"RLU, fluorescence trace",Time (s) 191.547,246.932 RLU
same,"RLU, fluorescence trace",Time (s) 197.547,258.506 RLU
same,"RLU, fluorescence trace",Time (s) 203.547,232.756 RLU
same,"RLU, fluorescence trace",Time (s) 209.547,219.78 RLU
same,"RLU, fluorescence trace",Time (s) 215.547,251.011 RLU
same,"RLU, fluorescence trace",Time (s) 221.547,260.591 RLU
same,"RLU, fluorescence trace",Time (s) 227.547,271.039 RLU
same,"RLU, fluorescence trace",Time (s) 233.547,291.66 RLU
same,"RLU, fluorescence trace",Time (s) 239.547,269.732 RLU
same,"RLU, fluorescence trace",Time (s) 245.547,266.514 RLU
same,"RLU, fluorescence trace",Time (s) 293.547,239.384 RLU
same,"RLU, fluorescence trace",Time (s) 299.547,250.874 RLU
same,"RLU, fluorescence trace",Time (s) 305.547,250.223 RLU
same,"RLU, fluorescence trace",Time (s) 311.547,248.529 RLU
same,"RLU, fluorescence trace",Time (s) 317.547,268.105 RLU
same,"RLU, fluorescence trace",Time (s) 323.547,278.662 RLU
same,"RLU, fluorescence trace",Time (s) 329.547,259.586 RLU
same,"RLU, fluorescence trace",Time (s) 335.547,285.984 RLU
same,"RLU, fluorescence trace",Time (s) 341.547,283.853 RLU
same,"RLU, fluorescence trace",Time (s) 347.547,275.523 RLU
same,"RLU, fluorescence trace",Time (s) 353.547,309.056 RLU
same,"RLU, fluorescence trace",Time (s) 359.547,277.364 RLU
same,Activation threshold concentration TAS2R4,lowest concentration with significantly increased fluorescence vs empty vector (p < 0.01),30 µM
